Test results: the Kinase Knowledgebase extract (Sharma et al. 2016)

Assays:
PIK3CB (Human) [1] = biological target: PIK3CB (Human) (UniProt P42338); test: Assessment of PIK3CB Kinase Activity in 786-O Cells
PIK3CG (human) = PIK3CG (human) (UniProt P48736); test: Assessment of PIK3CG Kinase Activity
PIK3CD (Human) [2] = biological target: PIK3CD (Human) (UniProt O00329); test: Assessment of PIK3CD Kinase Activity in RAJI Cells
PIK3CD (Human) [3] = biological target: PIK3CD (Human) (UniProt O00329); test: Assessment of PIK3CD Kinase Activity
PIK3CB (Human) [4] = biological target: PIK3CB (Human) (UniProt P42338); test: Assessment of PIK3CB Kinase Activity
PIK3CA (human) [5] = biological target: PIK3CA (human) (UniProt P42336); test: Assessment of PIK3CA Kinase Activity
PIK3CA (human) [6] = biological target: PIK3CA (human) (UniProt P42336); test: Assessment of PIK3CA Kinase Activity in SKOV-3 Cells

Chain of PIK3CA (human) (P42336 whole entry, looked up): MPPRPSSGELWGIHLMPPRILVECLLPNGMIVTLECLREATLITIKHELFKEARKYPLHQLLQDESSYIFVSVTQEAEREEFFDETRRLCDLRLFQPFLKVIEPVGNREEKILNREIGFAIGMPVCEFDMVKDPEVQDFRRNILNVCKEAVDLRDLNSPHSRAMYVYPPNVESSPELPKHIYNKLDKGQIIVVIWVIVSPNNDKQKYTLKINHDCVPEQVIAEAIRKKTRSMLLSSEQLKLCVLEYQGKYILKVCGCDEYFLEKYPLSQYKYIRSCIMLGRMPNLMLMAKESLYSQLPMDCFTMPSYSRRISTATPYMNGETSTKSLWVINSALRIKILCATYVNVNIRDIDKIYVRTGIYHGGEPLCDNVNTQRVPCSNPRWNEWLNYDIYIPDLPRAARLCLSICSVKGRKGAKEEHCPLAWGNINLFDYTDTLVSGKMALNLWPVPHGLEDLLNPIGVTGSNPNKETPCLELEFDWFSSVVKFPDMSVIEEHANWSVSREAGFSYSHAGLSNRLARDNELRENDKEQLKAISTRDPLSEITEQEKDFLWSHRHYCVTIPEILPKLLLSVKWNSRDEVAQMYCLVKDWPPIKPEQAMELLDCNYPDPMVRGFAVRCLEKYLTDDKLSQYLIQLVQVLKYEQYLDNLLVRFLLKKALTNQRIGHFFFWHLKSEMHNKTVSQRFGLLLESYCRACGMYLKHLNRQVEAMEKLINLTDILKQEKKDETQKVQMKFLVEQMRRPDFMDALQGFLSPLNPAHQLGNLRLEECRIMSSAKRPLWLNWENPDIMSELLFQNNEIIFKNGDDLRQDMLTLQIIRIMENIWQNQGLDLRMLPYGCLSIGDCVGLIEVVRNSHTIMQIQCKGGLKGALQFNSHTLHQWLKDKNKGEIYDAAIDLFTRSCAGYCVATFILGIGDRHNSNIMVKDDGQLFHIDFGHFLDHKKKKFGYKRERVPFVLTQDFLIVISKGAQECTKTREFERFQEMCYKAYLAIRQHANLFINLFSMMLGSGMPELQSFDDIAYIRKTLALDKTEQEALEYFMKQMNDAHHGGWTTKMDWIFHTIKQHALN
Chain of PIK3CG (human) (P48736 whole entry, looked up): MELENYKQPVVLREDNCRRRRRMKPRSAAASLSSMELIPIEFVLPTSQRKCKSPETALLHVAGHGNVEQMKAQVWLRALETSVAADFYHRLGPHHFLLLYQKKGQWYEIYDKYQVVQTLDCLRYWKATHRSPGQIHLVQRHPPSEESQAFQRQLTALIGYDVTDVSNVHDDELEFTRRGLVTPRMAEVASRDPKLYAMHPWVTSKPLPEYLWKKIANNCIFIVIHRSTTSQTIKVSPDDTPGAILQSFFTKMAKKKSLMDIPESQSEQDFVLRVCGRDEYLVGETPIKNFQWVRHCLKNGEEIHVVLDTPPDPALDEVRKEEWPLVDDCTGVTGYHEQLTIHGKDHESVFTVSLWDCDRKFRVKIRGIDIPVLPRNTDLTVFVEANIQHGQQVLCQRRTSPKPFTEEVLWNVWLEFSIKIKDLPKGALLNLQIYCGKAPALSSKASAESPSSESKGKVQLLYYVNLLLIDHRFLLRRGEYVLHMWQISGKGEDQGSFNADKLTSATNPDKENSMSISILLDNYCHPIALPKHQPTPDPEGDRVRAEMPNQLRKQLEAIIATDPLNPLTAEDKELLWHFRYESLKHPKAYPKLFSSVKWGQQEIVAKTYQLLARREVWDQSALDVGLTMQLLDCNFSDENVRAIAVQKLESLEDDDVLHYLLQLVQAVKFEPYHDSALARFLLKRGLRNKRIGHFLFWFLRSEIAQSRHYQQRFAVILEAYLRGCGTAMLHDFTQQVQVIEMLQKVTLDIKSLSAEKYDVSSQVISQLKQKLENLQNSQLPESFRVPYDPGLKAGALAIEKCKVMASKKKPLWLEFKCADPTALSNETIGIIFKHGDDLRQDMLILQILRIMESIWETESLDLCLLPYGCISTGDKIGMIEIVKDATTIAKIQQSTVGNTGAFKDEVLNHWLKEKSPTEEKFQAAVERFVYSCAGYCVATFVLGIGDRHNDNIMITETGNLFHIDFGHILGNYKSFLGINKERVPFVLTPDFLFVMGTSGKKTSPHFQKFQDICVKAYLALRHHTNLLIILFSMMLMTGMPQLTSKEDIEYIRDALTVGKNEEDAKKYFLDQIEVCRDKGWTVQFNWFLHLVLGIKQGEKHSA
Chain of PIK3CB (Human) (P42338 whole entry, looked up): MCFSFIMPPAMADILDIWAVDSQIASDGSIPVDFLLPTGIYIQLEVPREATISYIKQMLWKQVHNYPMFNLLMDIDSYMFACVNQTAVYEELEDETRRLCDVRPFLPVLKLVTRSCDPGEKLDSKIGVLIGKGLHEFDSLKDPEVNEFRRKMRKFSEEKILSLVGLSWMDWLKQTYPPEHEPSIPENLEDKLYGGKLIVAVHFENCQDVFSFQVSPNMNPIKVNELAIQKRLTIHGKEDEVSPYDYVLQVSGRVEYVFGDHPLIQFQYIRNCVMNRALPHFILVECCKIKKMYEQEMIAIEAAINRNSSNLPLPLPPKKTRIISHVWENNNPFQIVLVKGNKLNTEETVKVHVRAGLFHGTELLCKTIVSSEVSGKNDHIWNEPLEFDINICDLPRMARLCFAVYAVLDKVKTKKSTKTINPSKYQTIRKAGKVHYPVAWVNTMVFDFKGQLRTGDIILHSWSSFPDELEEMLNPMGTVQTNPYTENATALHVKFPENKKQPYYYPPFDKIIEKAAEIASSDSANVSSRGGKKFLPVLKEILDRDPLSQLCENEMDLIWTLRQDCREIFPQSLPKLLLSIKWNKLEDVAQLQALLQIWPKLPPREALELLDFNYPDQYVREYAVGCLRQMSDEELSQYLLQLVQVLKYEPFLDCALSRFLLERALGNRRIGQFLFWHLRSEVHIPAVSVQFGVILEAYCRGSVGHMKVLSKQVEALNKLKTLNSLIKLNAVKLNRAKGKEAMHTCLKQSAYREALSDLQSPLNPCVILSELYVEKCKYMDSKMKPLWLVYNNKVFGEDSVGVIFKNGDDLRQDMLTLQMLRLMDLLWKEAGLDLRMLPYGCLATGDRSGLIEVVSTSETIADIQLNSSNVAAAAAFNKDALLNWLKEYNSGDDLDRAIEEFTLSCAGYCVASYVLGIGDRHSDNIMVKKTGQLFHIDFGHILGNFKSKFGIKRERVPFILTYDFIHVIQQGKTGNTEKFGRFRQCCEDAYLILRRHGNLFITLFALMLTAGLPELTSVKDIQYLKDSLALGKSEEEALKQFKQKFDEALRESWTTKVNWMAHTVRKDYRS
Chain of PIK3CD (Human) (O00329 whole entry, looked up): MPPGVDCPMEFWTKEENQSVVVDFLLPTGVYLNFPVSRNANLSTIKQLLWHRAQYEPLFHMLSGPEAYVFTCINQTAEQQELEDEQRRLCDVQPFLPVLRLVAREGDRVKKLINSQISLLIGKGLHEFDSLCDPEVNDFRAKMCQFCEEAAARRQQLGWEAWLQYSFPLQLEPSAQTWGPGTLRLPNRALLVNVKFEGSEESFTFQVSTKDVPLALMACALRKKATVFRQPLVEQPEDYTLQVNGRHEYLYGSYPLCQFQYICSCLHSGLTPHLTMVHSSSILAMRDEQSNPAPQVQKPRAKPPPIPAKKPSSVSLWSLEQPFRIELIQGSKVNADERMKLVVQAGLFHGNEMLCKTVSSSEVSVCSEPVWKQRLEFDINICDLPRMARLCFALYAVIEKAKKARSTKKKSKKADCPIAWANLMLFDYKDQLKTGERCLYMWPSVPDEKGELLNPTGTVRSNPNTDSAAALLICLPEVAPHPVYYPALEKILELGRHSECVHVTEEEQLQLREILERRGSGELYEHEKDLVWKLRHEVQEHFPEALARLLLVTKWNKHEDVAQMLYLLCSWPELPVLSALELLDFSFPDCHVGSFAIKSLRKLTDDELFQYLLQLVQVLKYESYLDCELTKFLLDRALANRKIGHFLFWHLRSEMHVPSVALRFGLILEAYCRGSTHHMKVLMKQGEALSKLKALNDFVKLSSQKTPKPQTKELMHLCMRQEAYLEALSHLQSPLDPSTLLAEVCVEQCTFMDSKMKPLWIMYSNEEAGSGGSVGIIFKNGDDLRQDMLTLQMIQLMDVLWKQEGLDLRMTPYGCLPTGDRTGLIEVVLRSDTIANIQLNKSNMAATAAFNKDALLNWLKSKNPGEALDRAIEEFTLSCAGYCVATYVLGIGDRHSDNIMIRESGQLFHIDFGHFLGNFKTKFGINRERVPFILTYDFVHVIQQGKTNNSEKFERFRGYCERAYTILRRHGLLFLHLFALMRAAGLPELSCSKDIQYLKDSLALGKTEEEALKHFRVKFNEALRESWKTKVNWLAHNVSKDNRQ

Row | SMILES | IC50 (PIK3CB (Human) [1]) [nM] | IC50 (PIK3CG (human)) [nM] | IC50 (PIK3CD (Human) [2]) [nM] | IC50 (PIK3CD (Human) [3]) [nM] | IC50 (PIK3CB (Human) [4]) [nM] | IC50 (PIK3CA (human) [5]) [nM] | IC50 (PIK3CA (human) [6]) [nM]
1 | COc1ncc(-c2cccc3cc([C@H](C)Nc4nc(N)ncc4C#N)n(-c4ccccc4)c(=O)c23)cn1 | > 10000 | < 100 | < 100 | < 100 | > 10000 |  | 
2 | COc1ncc(-c2cccc3cc([C@H](C)Nc4ncnc(N)c4C#N)n(-c4ccccc4)c(=O)c23)cn1 |  | 100 to 1000 | < 100 | < 100 | > 10000 | > 10000 | 
3 | COc1nc(-c2cnc(N)nc2N[C@@H](C)c2cc3cccc(-c4ccc(=O)n(C)c4)c3c(=O)n2-c2ccccc2)cs1 | > 10000 | < 100 | < 100 | < 100 | > 10000 | > 10000 | > 10000
4 | CC(C)n1c([C@H](C)Nc2nc(N)ncc2C#N)cc2cccc(-c3ccc(=O)n(C)c3)c2c1=O | 100 to 1000 | 100 to 1000 | < 100 | < 100 |  |  | 
5 | C[C@H](Nc1nc(N)ncc1C#N)c1cc2cccc(Cl)c2c(C(=O)NC2CCOCC2)n1 |  | > 10000 | < 100 |  | > 10000 | > 10000 | > 10000
6 | CC(C)OC(=O)c1cccc(-n2c([C@H](C)Nc3nc(N)ncc3C#N)cc3cccc(Cl)c3c2=O)c1 |  | 100 to 1000 | < 100 | 100 to 1000 | > 10000 | > 10000 | 
7 | Cc1ncc(-c2cccc3cc([C@H](C)Nc4nc(N)ncc4C#N)n(C(C)C)c(=O)c23)cn1 |  |  | < 100 | < 100 | > 10000 | > 10000 | 100 to 1000
8 | C[C@H](Nc1nc(N)ncc1-c1cccc(NS(=O)(=O)N(C)C)c1)c1cc2cccc(Cl)c2c(=O)n1-c1ccccc1 |  | < 100 | < 100 | < 100 | 100 to 1000 | > 10000 | 
9 | C[C@H](Nc1nc(N)ncc1-c1ccoc1)c1cc2cccc(Cl)c2c(=O)n1-c1ccccc1 |  | < 100 | < 100 | 100 to 1000 | > 10000 | > 10000 | 
10 | C[C@H](Nc1nc(N)ncc1-c1cccc(S(=O)(=O)N2CCCC2)c1)c1cc2cccc(Cl)c2c(=O)n1-c1ccccc1 |  | < 100 | < 100 | < 100 | 100 to 1000 | > 10000 | 
11 | C[C@H](Nc1ncnc(N)c1C#N)c1cc2cccc(Cl)c2c(C(=O)NC2CCOCC2)n1 |  |  | < 100 | 100 to 1000 | > 10000 | > 10000 | 
12 | C[C@H](Nc1nc(N)ncc1-c1cscn1)c1cc2cccc(-c3ccc(=O)n(C)c3)c2c(=O)n1-c1ccccc1 |  | < 100 | < 100 | < 100 | > 10000 | > 10000 | 
13 | Cc1ncc(-c2cccc3cc([C@H](C)Nc4ncnc(N)c4C#N)n(-c4ccon4)c(=O)c23)cn1 |  | > 10000 | < 100 | 100 to 1000 | > 10000 | > 10000 | 
14 | CCOc1nc(-c2cnc(N)nc2N[C@@H](C)c2cc3cccc(-c4ccc(=O)n(C)c4)c3c(=O)n2-c2ccccc2)cs1 |  | < 100 | < 100 | < 100 |  |  | 100 to 1000
15 | Cc1ncc(-c2cccc3cc([C@H](C)Nc4nc(N)ncc4C#N)n(-c4ccon4)c(=O)c23)cn1 |  |  | < 100 | < 100 | > 10000 | > 10000 | 
16 | COc1cc(-c2cccc3cc(CNc4nc(N)ncc4C#N)n(-c4ccccc4)c(=O)c23)ccn1 |  | 100 to 1000 | < 100 | < 100 | > 10000 | > 10000 | 
17 | C[C@H](Nc1nc(N)ncc1C#N)c1cc2cccc(Cl)c2c(=O)n1-c1cc(F)cc(F)c1 |  | < 100 | < 100 | 100 to 1000 | > 10000 | > 10000 | 
18 | CC(C)C(=O)c1cnc(N)nc1N[C@@H](C)c1cc2cccc(Cl)c2c(=O)n1-c1ccccc1 |  | 100 to 1000 | < 100 | 100 to 1000 | > 10000 |  | 
19 | C[C@H](Nc1nc(N)ncc1-c1cn[nH]c1)c1cc2cccc(Cl)c2c(=O)n1-c1ccccc1 |  | < 100 | < 100 | 100 to 1000 | > 10000 | > 10000 | 
20 | CC(=O)c1cnc(N)nc1N[C@@H](C)c1cc2cccc(Cl)c2c(=O)n1-c1ccccc1 |  | < 100 | < 100 | < 100 | < 100 | 100 to 1000 | 
21 | C[C@H](Nc1nc(N)ncc1-c1cccc(S(=O)(=O)N(C)C)c1)c1cc2cccc(Cl)c2c(=O)n1-c1ccccc1 |  | < 100 | < 100 | < 100 | 100 to 1000 | 100 to 1000 | 
22 | CC(C)n1c([C@H](C)Nc2ncnc(N)c2C#N)cc2cccc(-c3ccc(=O)n(C)c3)c2c1=O | 100 to 1000 | 100 to 1000 | < 100 | < 100 |  |  | 
23 | COc1ncc(-c2cccc3cc([C@H](C)Nc4nc(N)ncc4C#N)n(-c4ccon4)c(=O)c23)cn1 |  |  | < 100 | 100 to 1000 | > 10000 | > 10000 | 
24 | C[C@H](Nc1nc(N)ncc1-c1cncs1)c1cc2cccc(-c3ccc(=O)n(C)c3)c2c(=O)n1-c1ccccc1 |  | < 100 | < 100 | < 100 | > 10000 | > 10000 | 
25 | C=CS(=O)(=O)Nc1cccc(-c2cnc(N)nc2N[C@@H](C)c2cc3cccc(Cl)c3c(=O)n2-c2ccccc2)c1 |  | < 100 | < 100 | < 100 | 100 to 1000 | 100 to 1000 | 
26 | C[C@H](Nc1nc(N)ncc1-c1cccc(S(=O)(=O)N2CCCCC2)c1)c1cc2cccc(Cl)c2c(=O)n1-c1ccccc1 |  | < 100 | < 100 | 100 to 1000 | 100 to 1000 | 100 to 1000 | 
27 | CCS(=O)(=O)c1cccc(-c2cnc(N)nc2N[C@@H](C)c2cc3cccc(Cl)c3c(=O)n2-c2ccccc2)c1 |  | > 10000 | < 100 | 100 to 1000 | 100 to 1000 |  | 
28 | C[C@H](Nc1nc(N)ncc1C#N)c1cc2cccc(Cl)c2c(=O)n1-c1cccc(C#N)c1 |  | 100 to 1000 | < 100 | < 100 | 100 to 1000 |  | 
29 | C[C@H](Nc1ncnc(N)c1C#N)c1cc2cccc(Cl)c2c(=O)n1-c1ccon1 |  | 100 to 1000 | < 100 | 100 to 1000 | > 10000 | > 10000 | 
